Source: article PMC11620517, “Novel hydrazone compounds with broad-spectrum antiplasmodial activity and synergistic interactions with antimalarial drugs” (Antimicrobial Agents and Chemotherapy, 2024)
Values joined by “and” are separate entries in the source; they are usually repeats but may differ in a detail not shown here. Identical values can stand only once. Like-named read-outs stand apart in the source and are kept apart here.

Legend:
[1] = molecular target: T1, recombinant P. falciparum GST (Plasmodium falciparum, UniProt Q8ILQ7); experiment: GST inhibition assay (CDNB); assay type: biochemical; settings: 6-point 1–50 µM
T1 construct: The open reading frames encoding PfGST, PbGST, and hGST were gene-synthesized; TEV cleavage site (C); Avitag (C); purchased InterRayBio, LLC; host or cells: E. coli BL21 (DE3)
T1 sequence (Q8ILQ7 1-211): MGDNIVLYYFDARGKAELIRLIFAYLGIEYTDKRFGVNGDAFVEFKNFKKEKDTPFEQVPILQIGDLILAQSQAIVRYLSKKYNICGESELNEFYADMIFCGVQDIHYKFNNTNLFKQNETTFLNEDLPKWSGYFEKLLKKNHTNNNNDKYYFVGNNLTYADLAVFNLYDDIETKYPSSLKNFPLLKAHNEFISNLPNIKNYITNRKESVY
Procedure: (§1) Enzymatic activities of recombinant GSTs were determined spectrophotometrically using the chromogenic substrate 1-chloro-2,4-dinitrobenzene (CDNB). Recombinant GST (0.35 mg/mL) was mixed with 1 mM CDNB in 100 mM HEPES. Stock solutions (10 mM) of the CB compounds and hemin were prepared in 100% dimethyl sulfoxide (DMSO) and then diluted at 0.5% DMSO ([14]). Each inhibitor has six concentrations ranging from 1 to 50 µM. The reaction was initiated with 1 mM glutathione (GSH) after 15 minutes. Absorbance change at 340 nm was measured for 1 hour. The slope was converted to micromole per minute using Beer’s equation and the extinction coefficient for the product S-(2,4-dinitrophenyl)glutathione (ε340 nm = 9.6 mM^–1 cm^–1) ([14]). The assay was validated using human placenta GST (#G8642) as a positive control.

human GST = molecular target: T2, human GST (Homo sapiens, UniProt P08263); experiment: GST inhibition assay (CDNB); assay type: biochemical; settings: 6-point 1–50 µM
T2 construct: The open reading frames encoding PfGST, PbGST, and hGST were gene-synthesized; TEV cleavage site (C); Avitag (C); purchased InterRayBio, LLC; host or cells: E. coli BL21 (DE3)
T2 sequence (P08263 1-222): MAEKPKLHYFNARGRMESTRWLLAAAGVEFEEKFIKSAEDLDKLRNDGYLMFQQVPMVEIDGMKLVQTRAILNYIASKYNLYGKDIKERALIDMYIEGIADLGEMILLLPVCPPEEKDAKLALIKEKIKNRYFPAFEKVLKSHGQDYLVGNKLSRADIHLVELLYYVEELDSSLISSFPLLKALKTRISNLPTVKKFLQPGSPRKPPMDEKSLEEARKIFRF
Procedure: as §1

[2] = test system: P. falciparum oocyst formation in Anopheles stephensi mosquitoes; experiment: P. falciparum oocyst inhibition assay (SMFA); assay type: in vivo, Plasmodium falciparum; settings: for Mean oocyst # excluding zeros (Range): P. falciparum midgut infection in An. stephensi mosquitoes; for Median (oocysts) / Prevalence % / Median I % / Prevalence I %: pooled from two representative experiments; for oocyst formation inhibition: 1 to 10 µM, midguts dissected 8 days after feeding
Procedure: As previously described, P. falciparum infections were performed using SMFA with NF54 gametocyte cultures diluted to 0.3% stage V gametocytemia ([62]). Infected blood (O+ human 45% hematocrit in serum) was offered to mosquitoes for 30 minutes, and engorged mosquitoes were maintained on a 10% corn syrup solution supplemented by four concentrations of CB compounds (1, 2.5, 5, and 10 µM) at […] ([63]), with DMSO serving as a control. Eight days post-infection, mosquito midguts were dissected and stained with 0.2% mercurochrome for 30 minutes, and oocysts were quantified under a light microscope ([63]).

in vitro = settings: human, HepG2 cells
Procedure: HepG2 cell viability was assessed using the Cell Proliferation kit with trypan blue exclusion. […] After incubation, a 1.5-mg/mL Cell Proliferation kit solution diluted in complete MEM medium was added to each well, followed by 1-hour dark incubation at 25°C. After aspiration of media and inhibitors, the plates were dried in a hood for 15 minutes, and acidified isopropyl alcohol was added to dissolve formazan dye crystals. The plates were then rotated for 15–30 minutes, and absorbance was determined using a Perkin Elmer Ensight plate reader.

[3] = test system: P. cynomolgi hypnozoites and hepatic schizonts; experiment: P. cynomolgi liver-stage inhibition assay; assay type: cell-based, Plasmodium cynomolgi; settings: Plasmodium cynomolgi, prophylactic drug treatment mode
Procedure: Primary primate hepatocytes were seeded in 384-well plates and used within 2–4 days ([56]). P. cynomolgi B strain parasites were inoculated and developed into hypnozoites and schizonts. CB compounds were tested in 8-point, threefold serial dilutions (100 µM to […]) for both prophylactic (4 days starting with sporozoite addition) and radical cure (4 days starting day 4 post-inoculation) modalities ([56][–][60]). The Operetta CLS imaging system and Harmony Software 4.9 (Perkin Elmer, Waltham, MA, USA) analyzed the plates, and the percentage of inhibition (PI) was calculated in Python using equation (1), where parasitic quantities (hypnozoite and schizont counts) were normalized to the negative control ([57]). Each plate included negative (DMSO) and positive (KDU691, maduramicin, tafenoquine) controls ([58]). IC50 values were determined using an 8-point, threefold dilution format and a Python-adapted grid algorithm for fitting PI to a four-parameter logistic function ([61]).
PI = 100 ∗(1−(xy/Meanneg))

[4] = 1 μM compound, infection prevalence in mosquitoes
[5] = 1 μM, single experiments, read-out: % inhibition (mean)
[6] = 1 μM, single experiments, read-out: % inhibition (median)
[7] = 2.5 μM compound, infection prevalence in mosquitoes
[8] = 2.5 μM, single experiments, read-out: % inhibition (mean)
[9] = 5 μM compound, infection prevalence in mosquitoes
[10] = 5 μM, single experiments, read-out: % inhibition (mean)
[11] = 5 μM, single experiments, read-out: % inhibition (median)
[12] = 10 μM compound, infection prevalence in mosquitoes
[13] = 10 μM, single experiments, read-out: % inhibition (mean)
[14] = 10 μM compound, oocyst number vs DMSO control, read-out: % inhibition (mean)
[15] = 10 μM compound, oocyst number vs DMSO control, read-out: % inhibition (median)
[16] = 10 μM compound, vs DMSO control, read-out: % inhibition (prevalence)

O=C(N/N=C/c1cc(Br)ccc1O)/C(=C/C=C/c1ccccc1)NC(=O)c1ccccc1 [CB-50]
GST inhibition [1]: did not inhibit
GST inhibition (human GST): did not inhibit
Median oocyst # ([2]; 1 μM compound): 8
Mean oocyst # excluding zeros (Range) ([2]; 1 μM compound): 18 (0-95)
Prevalence [2, 4]: 81
Median (oocysts) ([2]; 1 µM): 8
Prevalence % ([2]; 1 µM): 82%
Prevalence ([2]; 1 μM, single experiments): 73 and 91 and 90
inhibition at 1 µM [2, 5]: 48%
inhibition at 1 µM [2, 6]: 48%
Median oocyst # ([2]; 2.5 μM compound): 9
Mean oocyst # excluding zeros (Range) ([2]; 2.5 μM compound): 26 (0-103)
Prevalence [2, 7]: 74
Median (oocysts) ([2]; 2.5 µM): 9
Prevalence % ([2]; 2.5 µM): 74%
Prevalence ([2]; 2.5 μM, single experiments): 68 and 82 and 83
inhibition at 2.5 µM [2, 8]: 38%
inhibition at 2.5 µM ([2]; 2.5 μM, single experiments, read-out: % inhibition (median)): 48%
inhibition at 2.5 µM ([2]; 2.5 μM, single experiments, read-out: % inhibition (prevalence)): 5%
Median oocyst # ([2]; 5 μM compound): 7
Mean oocyst # excluding zeros (Range) ([2]; 5 μM compound): 15 (0-67)
Prevalence [2, 9]: 89
Median (oocysts) ([2]; 5 µM): 7
Prevalence % ([2]; 5 µM): 89%
Prevalence ([2]; 5 μM, single experiments): 87 and 90 and 92
inhibition at 5 µM [2, 10]: 19%
inhibition at 5 µM [2, 11]: 3%
Median oocyst # ([2]; 10 μM compound): 7
Mean oocyst # excluding zeros (Range) ([2]; 10 μM compound): 18 (0-74)
Prevalence [2, 12]: 74
Median (oocysts) ([2]; 10 µM): 7
Prevalence % ([2]; 10 µM): 74%
Prevalence ([2]; 10 μM, single experiments): 65 and 88 and 89
inhibition at 10 µM [2, 13]: 52%
inhibition at 10 µM ([2]; 10 μM, single experiments, read-out: % inhibition (median)): 61%
oocyst formation inhibition [2]: did not inhibit oocyst formation
IC50 at 48 h (in vitro): > 20 µM
IC50 ([3]; read-out: Hypnozoite IC50): > 10 µM
IC50 ([3]; read-out: Schizont IC50): > 10 µM
IC50 ([3]; read-out: Total parasite IC50): > 10 µM

O=C(NN=Cc1ccccc1O)c1cc(-c2ccccc2)nc2ccccc12 [CB-53]
GST inhibition [1]: did not inhibit
GST inhibition (human GST): did not inhibit
Median oocyst # ([2]; 1 μM compound): 1
Mean oocyst # excluding zeros (Range) ([2]; 1 μM compound): 36 (0-125)
Prevalence [2, 4]: 59
inhibition at 1 µM ([2]; 1 μM compound, oocyst number vs DMSO control, read-out: % inhibition (mean)): 5%
inhibition at 1 µM ([2]; 1 μM compound, oocyst number vs DMSO control, read-out: % inhibition (median)): 83%
inhibition at 1 µM ([2]; 1 μM compound, vs DMSO control, read-out: % inhibition (prevalence)): 32%
Median (oocysts) ([2]; 1 µM): 1
Median I % ([2]; 1 µM): 83%
Prevalence % ([2]; 1 µM): 59%
Prevalence I % ([2]; 1 µM): 32%
inhibition at 1 µM [2, 5]: 36%
Median oocyst # ([2]; 2.5 μM compound): 1
Mean oocyst # excluding zeros (Range) ([2]; 2.5 μM compound): 29 (0-115)
Prevalence [2, 7]: 60
inhibition at 2.5 µM ([2]; 2.5 μM compound, oocyst number vs DMSO control, read-out: % inhibition (mean)): 22%
inhibition at 2.5 µM ([2]; 2.5 μM compound, oocyst number vs DMSO control, read-out: % inhibition (median)): 83%
inhibition at 2.5 µM ([2]; 2.5 μM compound, vs DMSO control, read-out: % inhibition (prevalence)): 31%
Median (oocysts) ([2]; 2.5 µM): 1
Median I % ([2]; 2.5 µM): 83%
Prevalence % ([2]; 2.5 µM): 60%
Prevalence I % ([2]; 2.5 µM): 31%
Prevalence ([2]; 2.5 μM, single experiments): 67 and 91 and 47 and 70
inhibition at 2.5 µM [2, 8]: 37%
Median oocyst # ([2]; 5 μM compound): 0
Mean oocyst # excluding zeros (Range) ([2]; 5 μM compound): 26 (0-83)
Prevalence [2, 9]: 48
inhibition at 5 µM ([2]; 5 μM compound, oocyst number vs DMSO control, read-out: % inhibition (mean)): 44%
inhibition at 5 µM ([2]; 5 μM compound, vs DMSO control, read-out: % inhibition (prevalence)): 44%
Median (oocysts) ([2]; 5 µM): 0
Median I % ([2]; 5 µM): 100%
Prevalence % ([2]; 5 µM): 48%
Prevalence I % ([2]; 5 µM): 44%
% inhibition (mean) ([2]; 5 μM, single experiments): 23%
inhibition at 5 µM [2, 10]: 24%
Median oocyst # ([2]; 10 μM compound): 1
Mean oocyst # excluding zeros (Range) ([2]; 10 μM compound): 28 (0-129)
Prevalence [2, 12]: 58
inhibition at 10 µM [2, 14]: 28%
inhibition at 10 µM [2, 15]: 83%
inhibition at 10 µM [2, 16]: 33%
Median (oocysts) ([2]; 10 µM): 1
Median I % ([2]; 10 µM): 83%
Prevalence % ([2]; 10 µM): 58%
Prevalence I % ([2]; 10 µM): 33%
oocyst formation inhibition [2]: inhibit the development of oocysts
IC50 at 48 h (in vitro): > 20 µM
IC50 ([3]; read-out: Hypnozoite IC50): > 10 µM
IC50 ([3]; read-out: Schizont IC50): > 10 µM
IC50 ([3]; read-out: Total parasite IC50): > 10 µM

COc1cccc(/C=N/NC(=O)c2cc(-c3ccccc3)nc3ccccc23)c1O [CB-58]
GST inhibition [1]: did not inhibit
GST inhibition (human GST): did not inhibit
Median oocyst # ([2]; 1 μM compound): 6
Mean oocyst # excluding zeros (Range) ([2]; 1 μM compound): 19 (0-95)
Prevalence [2, 4]: 76
Median (oocysts) ([2]; 1 µM): 6
Prevalence % ([2]; 1 µM): 75%
% inhibition (prevalence) ([2]; 1 μM, single experiments): 1%
Prevalence ([2]; 1 μM, single experiments): 69 and 82 and 83
inhibition at 1 µM [2, 5]: 5%
inhibition at 1 µM [2, 6]: 23%
Median oocyst # ([2]; 2.5 μM compound): 7
Mean oocyst # excluding zeros (Range) ([2]; 2.5 μM compound): 26 (0-103)
Prevalence [2, 7]: 72
Median (oocysts) ([2]; 2.5 µM): 7
Prevalence % ([2]; 2.5 µM): 72%
% inhibition (prevalence) ([2]; 2.5 μM, single experiments): 1%
Prevalence ([2]; 2.5 μM, single experiments): 66 and 79 and 87
Median oocyst # ([2]; 5 μM compound): 6
Mean oocyst # excluding zeros (Range) ([2]; 5 μM compound): 14 (0-70)
Prevalence [2, 9]: 87
Median (oocysts) ([2]; 5 µM): 6
Prevalence % ([2]; 5 µM): 87%
Prevalence ([2]; 5 μM, single experiments): 96 and 83 and 69
inhibition at 5 µM [2, 10]: 10%
inhibition at 5 µM [2, 11]: 26%
Median oocyst # ([2]; 10 μM compound): 3
Mean oocyst # excluding zeros (Range) ([2]; 10 μM compound): 17 (0-93)
Prevalence [2, 12]: 57
inhibition at 10 µM [2, 14]: 10%
inhibition at 10 µM [2, 15]: 50%
inhibition at 10 µM [2, 16]: 19%
Median (oocysts) ([2]; 10 µM): 3
Median I % ([2]; 10 µM): 50%
Prevalence % ([2]; 10 µM): 57%
Prevalence I % ([2]; 10 µM): 19%
% inhibition (prevalence) ([2]; 10 μM, single experiments): 15%
inhibition at 10 µM [2, 13]: 30%
inhibition at 10 µM ([2]; 10 μM, single experiments, read-out: % inhibition (prevalence)): 30%
oocyst formation inhibition [2]: did not inhibit oocyst formation
IC50 at 48 h (in vitro): > 20 µM
IC50 ([3]; read-out: Hypnozoite IC50): > 10 µM
IC50 ([3]; read-out: Schizont IC50): > 10 µM
IC50 ([3]; read-out: Total parasite IC50): > 10 µM
